Assay results taken from patent publication US12077503B2, “Substituted cyclic amides and their use as herbicides” (FMC CORPORATION, priority 2015, dated 2024).

Experiments:
Format in all cases: in vivo
[1] = tested on: chickweed (common chickweed, Stellaria media); assay: Test C postemergence; settings: scale 0 to 100, 0 no effect, 100 complete control
Outline: (§1)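 Preemergence application to seeds in loam/sand soil, or foliar (postemergence) application to plants 2–18 cm tall in peat moss/vermiculite medium; surfactant-containing non-phytotoxic solvent vehicle; greenhouse. Visual injury vs controls at 13–15 d; 0 = no effect, 100 = complete control.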

corn (Zea mays) = assay: Test C postemergence; settings: scale 0 to 100, 0 no effect, 100 complete control
Outline: as §1

[2] = tested on: ragweed (common ragweed, Ambrosia elatior); assay: Test C postemergence; settings: scale 0 to 100, 0 no effect, 100 complete control
Outline: as §1

soybean (Glycine max) = assay: Test C postemergence; settings: scale 0 to 100, 0 no effect, 100 complete control
Outline: as §1

[3] = tested on: velvetleaf (Abutilon theophrasti); assay: Test C postemergence; settings: scale 0 to 100, 0 no effect, 100 complete control
Outline: as §1

[4] = tested on: Galium (catchweed bedstraw, Galium aparine); assay: Test D preemergence; settings: scale 0 to 100
Outline: (§2)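 Percent control (0–100) estimated by eye relative to untreated plants roughly 21 d after preemergence treatment of seeds in silt loam soil.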

[5] = tested on: barley, spring (spring barley, Hordeum vulgare); assay: Test D preemergence; settings: scale 0 to 100
Outline: as §2

[6] = tested on: barley, winter (winter barley Hordeum vulgare); assay: Test D preemergence; settings: scale 0 to 100
Outline: as §2

[7] = tested on: bromegrass, downy (downy bromegrass, Bromus tectorum); assay: Test D preemergence; settings: scale 0 to 100
Outline: as §2

[8] = tested on: chamomile (scentless chamomile, Matricaria inodora); assay: Test D preemergence; settings: scale 0 to 100
Outline: as §2

[9] = tested on: chickweed (common chickweed, Stellaria media); assay: Test D preemergence; settings: scale 0 to 100
Outline: as §2

[10] = tested on: field poppy (Papaver rhoeas); assay: Test D preemergence; settings: scale 0 to 100
Outline: as §2

[11] = tested on: foxtail, green (green foxtail, Setaria viridis); assay: Test D preemergence; settings: scale 0 to 100
Outline: as §2

[12] = tested on: pigweed (Amaranthus retroflexus); assay: Test D preemergence; settings: scale 0 to 100
Outline: as §2

[13] = tested on: radish, wild (wild radish, Raphanus raphanistrum); assay: Test D preemergence; settings: scale 0 to 100
Outline: as §2

[14] = tested on: wheat, winter (winter wheat, Triticum aestivum); assay: Test D preemergence; settings: scale 0 to 100
Outline: as §2

[15] = tested on: windgrass (Apera spica-venti); assay: Test D preemergence; settings: scale 0 to 100
Outline: as §2

SMILES: CN1C[C@H](c2ccc(F)c(F)c2)[C@@H](C(=O)Nc2ccccc2F)C1=O [Compound 596, (3S,4S)-4-(3,4-difluorophenyl)-N-(2-fluorophenyl)-1-methyl-2-oxo-3-pyrrolidinecarboxamide]
- Plant response rating, Chickweed ([1]; 31 g ai/ha): 20
- Plant response rating, Chickweed ([1]; 62 g ai/ha): 20
- Plant response rating, Chickweed ([1]; 125 g ai/ha): 25
- Plant response rating, Chickweed ([1]; 250 g ai/ha): 80
- Plant response rating, Corn (corn (Zea mays); 31 g ai/ha): 0
- Plant response rating, Corn (corn (Zea mays); 62 g ai/ha): 0
- Plant response rating, Corn (corn (Zea mays); 125 g ai/ha): 0
- Plant response rating, Corn (corn (Zea mays); 250 g ai/ha): 10
- Plant response rating, Ragweed ([2]; 31 g ai/ha): 0
- Plant response rating, Ragweed ([2]; 62 g ai/ha): 0
- Plant response rating, Ragweed ([2]; 125 g ai/ha): 0
- Plant response rating, Ragweed ([2]; 250 g ai/ha): 15
- Plant response rating, Soybean (soybean (Glycine max); 31 g ai/ha): 0
- Plant response rating, Soybean (soybean (Glycine max); 62 g ai/ha): 0
- Plant response rating, Soybean (soybean (Glycine max); 125 g ai/ha): 10
- Plant response rating, Soybean (soybean (Glycine max); 250 g ai/ha): 0
- Plant response rating, Velvetleaf ([3]; 31 g ai/ha): 35
- Plant response rating, Velvetleaf ([3]; 62 g ai/ha): 35
- Plant response rating, Velvetleaf ([3]; 125 g ai/ha): 50
- Plant response rating, Velvetleaf ([3]; 250 g ai/ha): 55

SMILES: CN1C[C@H](c2ccc(C(F)(F)F)cc2)[C@@H](C(=O)Nc2cccc(F)c2F)C1=O [Compound 623, (3S,4S)—N-(2,3-difluorophenyl)-1-methyl-2-oxo-4-[4-(trifluoromethyl)phenyl]-3-pyrrolidinecarboxamide]
- Plant response rating: Galium ([4]; 31 g ai/ha): 0
- Plant response rating: Galium ([4]; 62 g ai/ha): 5
- Plant response rating: Galium ([4]; 125 g ai/ha): 15
- Plant response rating: Galium ([4]; 250 g ai/ha): 80
- Plant response rating: Barley, Spring ([5]; 31 g ai/ha): 5
- Plant response rating: Barley, Spring ([5]; 62 g ai/ha): 15
- Plant response rating: Barley, Spring ([5]; 125 g ai/ha): 35
- Plant response rating: Barley, Spring ([5]; 250 g ai/ha): 65
- Plant response rating: Barley, Winter ([6]; 31 g ai/ha): 5
- Plant response rating: Barley, Winter ([6]; 62 g ai/ha): 10
- Plant response rating: Barley, Winter ([6]; 125 g ai/ha): 40
- Plant response rating: Barley, Winter ([6]; 250 g ai/ha): 65
- Plant response rating: Bromegrass, Downy ([7]; 31 g ai/ha): 15
- Plant response rating: Bromegrass, Downy ([7]; 62 g ai/ha): 30
- Plant response rating: Bromegrass, Downy ([7]; 125 g ai/ha): 40
- Plant response rating: Bromegrass, Downy ([7]; 250 g ai/ha): 65
- Plant response rating: Chamomile ([8]; 31 g ai/ha): 20
- Plant response rating: Chamomile ([8]; 62 g ai/ha): 80
- Plant response rating: Chamomile ([8]; 125 g ai/ha): 85
- Plant response rating: Chamomile ([8]; 250 g ai/ha): 100
- Plant response rating: Chickweed ([9]; 31 g ai/ha): 65
- Plant response rating: Chickweed ([9]; 62 g ai/ha): 95
- Plant response rating: Chickweed ([9]; 125 g ai/ha): 95
- Plant response rating: Chickweed ([9]; 250 g ai/ha): 95
- Plant response rating: Field Poppy ([10]; 31 g ai/ha): 80
- Plant response rating: Field Poppy ([10]; 62 g ai/ha): 80
- Plant response rating: Field Poppy ([10]; 125 g ai/ha): 85
- Plant response rating: Field Poppy ([10]; 250 g ai/ha): 100
- Plant response rating: Foxtail, Green ([11]; 31 g ai/ha): 95
- Plant response rating: Foxtail, Green ([11]; 62 g ai/ha): 98
- Plant response rating: Foxtail, Green ([11]; 125 g ai/ha): 98
- Plant response rating: Foxtail, Green ([11]; 250 g ai/ha): 98
- Plant response rating: Pigweed ([12]; 31 g ai/ha): 75
- Plant response rating: Pigweed ([12]; 62 g ai/ha): 95
- Plant response rating: Pigweed ([12]; 125 g ai/ha): 95
- Plant response rating: Pigweed ([12]; 250 g ai/ha): 100
- Plant response rating: Radish, Wild ([13]; 31 g ai/ha): 0
- Plant response rating: Radish, Wild ([13]; 62 g ai/ha): 15
- Plant response rating: Radish, Wild ([13]; 125 g ai/ha): 50
- Plant response rating: Radish, Wild ([13]; 250 g ai/ha): 85
- Plant response rating: Wheat, Winter ([14]; 31 g ai/ha): 5
- Plant response rating: Wheat, Winter ([14]; 62 g ai/ha): 20
- Plant response rating: Wheat, Winter ([14]; 125 g ai/ha): 20
- Plant response rating: Wheat, Winter ([14]; 250 g ai/ha): 40
- Plant response rating: Windgrass ([15]; 31 g ai/ha): 85
- Plant response rating: Windgrass ([15]; 62 g ai/ha): 90
- Plant response rating: Windgrass ([15]; 125 g ai/ha): 95
- Plant response rating: Windgrass ([15]; 250 g ai/ha): 95
